Laboratory results as given in article PMC6269846, “Pyrrolizidine Alkaloids and Fatty Acids from the Endemic Plant Species Rindera umbellata and the Effect of Lindelofine-N-oxide on Tubulin Polymerization” (Molecules, 2013).

How the values were obtained:
tubulin [1] = test system: T1, tubulin; assay: turbidimetric tubulin polymerization assay (absorbance at […] nm); format: biochemical, Bos taurus
T1 construct: tubulin isolated from bovine brain (α/β heterodimer); with α-tubulin/β-tubulin heterodimer

tubulin [2] = test system: T1, tubulin; assay: turbidimetric tubulin polymerization assay (absorbance at […] nm), positive control; format: biochemical, Bos taurus

| Structure (SMILES) | IC50 (tubulin [1]) | IC50 (tubulin [2]) |
| --- | --- | --- |
| CC(C)[C@@](O)(C(=O)OC[C@@H]1CC[N+]2([O-])CCC[C@H]12)[C@@H](C)O (stereo partly drawn) [compound 7, (2S,3R)-((1R,7aR)-hexahydro-1H-pyrrolizin-1-yl)methyl2,3-dihydroxy-2-isopropylbutanoate-N-oxide] | 91 µM |  |
| CC(=O)O[C@H]1C(=O)[C@@]2(C)[C@H]([C@H](OC(=O)c3ccccc3)[C@]3(O)C[C@H](OC(=O)[C@H](O)[C@@H](NC(=O)c4ccccc4)c4ccccc4)C(C)=C1C3(C)C)[C@]1(OC(C)=O)CO[C@@H]1C[C@@H]2O [paclitaxel] |  | 2.4 µM |
